Measurements as given in publication PMC9649518, “Knockout of ABC transporters by CRISPR/Cas9 contributes to reliable and accurate transporter substrate identification for drug discovery” (Frontiers in Pharmacology, 2022).
Where two headings read alike, the source gives them in different places. Each block holds one compound with its values, some of them ahead of it.

Columns and labels:
[1] = Bidirectional transport assay across P-gp/BCRP double KO Caco-2 monolayers; conditions: human, pH 7.4
[2] = Bidirectional transport assay across BCRP KO Caco-2 monolayers; conditions: human; for Papp A→B at 1 h, 5 μM / Papp B→A at 1 h, 5 μM: pH 7.4
[3] = Bidirectional transport assay across MRP2/BCRP double KO Caco-2 monolayers; conditions: human; for Papp A→B at 1 h, 5 μM: pH 7.4, Papp A-to-B, Caco^MRP2−/−BCRP−/−, 5 μM substrate, 37°C, HBSS pH 7.4, n = 3
[4] = test system: Caco^MRP2−/−BCRP−/− cells; assay: as above; conditions: Caco^MRP2−/−BCRP−/−, 5 μM substrate, n = 3
[5] = Bidirectional transport assay, Caco^BCRP−/− and Caco^MRP2−/− cells taken together; format: in vitro ADME; conditions: human
Procedure: (§1) The medium was replaced every second day.
(§2) All these studies were conducted by following similar procedures. […] Then, HBSS was aspirated from both sides.
(§3) The flow rate was 0.3 mL/min.

Caco-2 WT cells [6] = assay: Bidirectional transport assay across Caco-2 WT monolayers; conditions: WT Caco-2, 5 μM substrate, n = 3; for Papp A-to-B / Papp B-to-A: 1 h, 37°C, HBSS pH 7.4; for Efflux ratio: Papp(B-to-A)/Papp(A-to-B)
[7] = as above; conditions: human
[8] = Bidirectional transport assay across P-gp KO Caco-2 monolayers; conditions: human, pH 7.4
[9] = Bidirectional transport assay across P-gp/MRP2 double KO Caco-2 monolayers; conditions: human, pH 7.4
[10] = Bidirectional transport assay across MRP2 KO Caco-2 monolayers; conditions: human, pH 7.4
P-gp = test system: P-gp; design: method as in Mease et al., 2012; conditions: 10 µM inhibitor; Caco-2; ref Mease et al., 2012; cited from earlier work
BCRP transporter = test system: BCRP transporter; design: method as in Mease et al., 2012; conditions: 1 µM inhibitor; Caco-2; ref Mease et al., 2012; cited from earlier work
[11] = test system: BCRP, MRP2, and MRP2/BCRP knock-out cell lines mediated by ZFN; design: method as in Sampson et al., 2015; conditions: ref Sampson et al., 2015, cited from earlier work
[12] = Bidirectional transport assay, P-gp single- and double-KO cells taken together; format: in vitro ADME; conditions: human, pH 7.4, 5 μM substrate
Procedure: as §1, §2, §3

Caco^Pgp−/−BCRP−/− cells [13] = assay: Bidirectional transport assay across P-gp/BCRP double KO Caco-2 monolayers; conditions: Caco^Pgp−/−BCRP−/−, 5 μM substrate, n = 3
Caco^BCRP−/− cells [14] = assay: Bidirectional transport assay across BCRP KO Caco-2 monolayers; conditions: Caco^BCRP−/−, 5 μM substrate, n = 3
[15] = test system: BCRP single- and double-KO Caco-2 cell lines; assay: Bidirectional transport assay, BCRP single- and double-KO cell lines taken together; conditions: 5 μM substrate
Caco^Pgp−/− cells [16] = assay: Bidirectional transport assay across P-gp KO Caco-2 monolayers; conditions: Caco^Pgp−/−, 5 μM substrate, n = 3
[17] = test system: MRP2 single- and double-KO Caco-2 cell lines; assay: Bidirectional transport assay, MRP2 single- and double-KO cell lines taken together; conditions: 5 μM substrate
Caco^Pgp−/−MRP2−/− cells [18] = assay: Bidirectional transport assay across P-gp/MRP2 double KO Caco-2 monolayers; conditions: Caco^Pgp−/−MRP2−/−, 5 μM substrate, n = 3
Caco^MRP2−/− cells [19] = assay: Bidirectional transport assay across MRP2 KO Caco-2 monolayers; conditions: Caco^MRP2−/−, 5 μM substrate, n = 3
Caco^Pgp−/−BCRP−/− cells [20] = test system: Caco^Pgp−/−BCRP−/− cells
Caco^Pgp−/− cells [21] = test system: Caco^Pgp−/− cells
Caco^MRP2−/− cells [22] = test system: Caco^MRP2−/− cells
Caco-2 WT cells [23] = test system: Caco-2 WT cells
Caco^BCRP−/− cells [24] = test system: Caco^BCRP−/− cells
Caco^Pgp−/−MRP2−/− cells [25] = test system: Caco^Pgp−/−MRP2−/− cells
[26] = test system: Caco^MRP2−/−BCRP−/− cells

Compound: CC(C)CN(C[C@@H](O)[C@H](Cc1ccccc1)NC(=O)O[C@H]1CO[C@H]2OCC[C@H]21)S(=O)(=O)c1ccc(N)cc1 [Darunavir]
- Papp A→B at 1 h, 5 μM [1]: 12.6 ± 1.31 ×10⁻⁶ cm/s
- Papp B→A at 1 h, 5 μM [1]: 11.5 ± 0.38 ×10⁻⁶ cm/s
- Papp A→B at 1 h, 5 μM [2]: 1.75 ± 0.13 ×10⁻⁶ cm/s
- Papp B→A at 1 h, 5 μM [2]: 34.32 ± 0.19 ×10⁻⁶ cm/s
- Papp B→A at 1 h, 5 μM ([3]; pH 7.4): 27 ± 0.79 ×10⁻⁶ cm/s
- Papp A→B at 1 h, 5 μM [3]: 4.4 ×10⁻⁶ cm/s
- Papp A-to-B ([4]; 1 h, 37°C, HBSS pH 7.4): 4.43 ± 0.63 ×10^−6cm/s
- Papp A→B at 1 h, 5 μM ([5]; pH 7.4, read-out: Papp (A-to-B) permeability): 1.7 to 1.8 ×10⁻⁶ cm/s
- Papp B→A at 1 h, 5 μM ([5]; pH 7.4, read-out: Papp (B-to-A) permeability): 29.8 to 34.3 ×10⁻⁶ cm/s
- Papp A-to-B (Caco-2 WT cells [6]): 2.65 ± 0.22 ×10^−6cm/s
- Papp B-to-A (Caco-2 WT cells [6]): 26.59 ± 2.06 ×10^−6cm/s
- Papp A→B at 1 h, 5 μM ([7]; Caco-2, pH 7.4, Papp A-to-B, WT Caco-2, 5 μM substrate, 1 h, 37°C, HBSS pH 7.4, n = 3): 2.6 ×10⁻⁶ cm/s
- Papp B→A at 1 h, 5 μM ([7]; Caco-2, pH 7.4, Papp B-to-A, WT Caco-2, 5 μM substrate, 1 h, 37°C, HBSS pH 7.4, n = 3): 26.6 ×10⁻⁶ cm/s
- Papp A→B at 1 h, 5 μM [8]: 15.1 ± 0.68 ×10⁻⁶ cm/s
- Papp B→A at 1 h, 5 μM [8]: 13.6 ± 0.8 ×10⁻⁶ cm/s
- Papp A→B at 1 h, 5 μM [9]: 10.1 ± 0.44 ×10⁻⁶ cm/s
- Papp B→A at 1 h, 5 μM [9]: 10.4 ± 0.2 ×10⁻⁶ cm/s
- Papp A→B at 1 h, 5 μM [10]: 1.9 ± 0.14 ×10⁻⁶ cm/s
- Papp B→A at 1 h, 5 μM [10]: 29.84 ± 0.24 ×10⁻⁶ cm/s

Compound: COc1ccc2c3c([nH]c2c1)[C@H](C=C(C)C)N1C(=O)[C@@H]2CCCN2C(=O)[C@@H]1C3 [fumitremorgin C]
- Inhibition of P-gp (P-gp): only partially inhibited
- Inhibition of the BCRP transporter (BCRP transporter): selectively inhibited

Compound: 5-(and-6)-carboxy-2′,7′-dichlorofluorescein [CDCF]
- Papp A-to-B (Caco^Pgp−/−BCRP−/− cells [20]): 2.02 ± 0.20 ×10^−6cm/s
- Papp B-to-A (Caco^Pgp−/−BCRP−/− cells [20]): 9.42 ± 0.55 ×10^−6cm/s
- Papp A-to-B (Caco^Pgp−/− cells [21]): 1.94 ± 0.10 ×10^−6cm/s
- Papp B-to-A (Caco^Pgp−/− cells [21]): 11.95 ± 1.61 ×10^−6cm/s
- Papp A-to-B (Caco^MRP2−/− cells [22]): 2.33 ± 0.62 ×10^−6cm/s
- Papp B-to-A (Caco^MRP2−/− cells [22]): 1.10 ± 0.13 ×10^−6cm/s
- Papp A-to-B (Caco-2 WT cells [23]): 1.05 ± 0.34 ×10^−6cm/s
- Papp B-to-A (Caco-2 WT cells [23]): 8.25 ± 0.63 ×10^−6cm/s
- Papp A-to-B (Caco^BCRP−/− cells [24]): 2.14 ± 0.08 ×10^−6cm/s
- Papp B-to-A (Caco^BCRP−/− cells [24]): 10.63 ± 0.96 ×10^−6cm/s
- Papp A-to-B (Caco^Pgp−/−MRP2−/− cells [25]): 2.41 ± 0.55 ×10^−6cm/s
- Papp B-to-A (Caco^Pgp−/−MRP2−/− cells [25]): 1.64 ± 0.46 ×10^−6cm/s
- Papp A-to-B [26]: 3.48 ± 0.51 ×10^−6cm/s
- Papp B-to-A [26]: 3.05 ± 0.80 ×10^−6cm/s

Continued, in another order:

- Papp A→B at 1 h, 5 μM [1]: 2.42 ± 0.64 ×10⁻⁶ cm/s
- Papp B→A at 1 h, 5 μM [1]: 2.08 ± 0.12 ×10⁻⁶ cm/s
- efflux ratio at 1 h, 5 μM [1]: 0.9 ± 0.21
- Papp A→B at 1 h, 5 μM [2]: 1.66 ± 0.42 ×10⁻⁶ cm/s
- Papp B→A at 1 h, 5 μM [2]: 14.8 ± 1.85 ×10⁻⁶ cm/s
- efflux ratio at 1 h, 5 μM ([2]; pH 7.4, Efflux ratio, Caco^BCRP−/−, 5 μM substrate, n = 3): 9.11 ± 1.66
- Papp B→A at 1 h, 5 μM ([3]; pH 7.4): 17.9 ± 0.63 ×10⁻⁶ cm/s
- efflux ratio at 1 h, 5 μM ([3]; pH 7.4): 9.36 ± 3.17
- Papp A→B at 1 h, 5 μM [3]: 2.03 ± 0.55 ×10⁻⁶ cm/s
- Efflux ratio (Caco-2 WT cells [6]): 6.38 ± 1.21
- Papp A→B at 1 h, 5 μM ([7]; Caco-2, pH 7.4): 1.48 ± 0.21 ×10⁻⁶ cm/s
- Papp B→A at 1 h, 5 μM ([7]; Caco-2, pH 7.4): 9.33 ± 1.34 ×10⁻⁶ cm/s
- efflux ratio at 1 h, 5 μM ([7]; Caco-2, pH 7.4, Efflux ratio, WT Caco-2, 5 μM substrate, Papp(B-to-A)/Papp(A-to-B), n = 3): 6.4
- Papp A→B at 1 h, 5 μM [8]: 1.42 ± 0.2 ×10⁻⁶ cm/s
- Papp B→A at 1 h, 5 μM [8]: 1.67 ± 0.23 ×10⁻⁶ cm/s
- efflux ratio at 1 h, 5 μM [8]: 1.2 ± 0.21
- Papp A→B at 1 h, 5 μM [9]: 1.95 ± 0.92 ×10⁻⁶ cm/s
- Papp B→A at 1 h, 5 μM [9]: 1.87 ± 0.4 ×10⁻⁶ cm/s
- efflux ratio at 1 h, 5 μM [9]: 1.05 ± 0.29
- efflux ratio at 1 h, 5 μM [12]: 1
- Papp A→B at 1 h, 5 μM [10]: 2.05 ± 0.51 ×10⁻⁶ cm/s
- Papp B→A at 1 h, 5 μM [10]: 17.6 ± 1.13 ×10⁻⁶ cm/s
- efflux ratio at 1 h, 5 μM [10]: 9.08 ± 2.87
Compound: C[C@H]1O[C@@H](O[C@H]2[C@@H](O)C[C@H](O[C@H]3[C@@H](O)C[C@H](O[C@H]4CC[C@@]5(C)[C@H](CC[C@@H]6[C@@H]5C[C@@H](O)[C@]5(C)[C@@H](C7=CC(=O)OC7)CC[C@]65O)C4)O[C@@H]3C)O[C@@H]2C)C[C@H](O)[C@@H]1O [Digoxin]
- Papp A-to-B ([11]; BCRP, MRP2, and MRP2/BCRP knock-out cell lines mediated by ZFN): ~ 0.25 × 10^–6 cm/s
- Papp A-to-B ([11]; starting value before knock-out ('from')): 0.99 × 10^–6 cm/s

- Papp A-to-B (Caco^Pgp−/−BCRP−/− cells [13]; 1 h, 37°C, HBSS pH 7.4): 1.88 ± 0.02 ×10^−6cm/s
- Papp B-to-A (Caco^Pgp−/−BCRP−/− cells [13]; 1 h, 37°C, HBSS pH 7.4): 1.54 ± 0.30 ×10^−6cm/s
- Efflux ratio (Caco^Pgp−/−BCRP−/− cells [13]): 0.820 ± 0.15
- Papp A-to-B (Caco^BCRP−/− cells [14]; 1 h, 37°C, HBSS pH 7.4): 1.15 ± 0.11 ×10^−6cm/s
- Papp B-to-A (Caco^BCRP−/− cells [14]; 1 h, 37°C, HBSS pH 7.4): 1.58 ± 0.08 ×10^−6cm/s
- Efflux ratio (Caco^BCRP−/− cells [14]): 1.36 ± 0.18
- Papp A-to-B ([4]; 1 h, 37°C, HBSS pH 7.4): 0.97 ± 0.04 ×10^−6cm/s
- Papp B-to-A ([4]; 1 h, 37°C, HBSS pH 7.4): 0.92 ± 0.49 ×10^−6cm/s
- Efflux ratio [4]: 0.96 ± 0.51
- Efflux ratio [15]: 0.8–1.3
- Papp A-to-B (Caco-2 WT cells [6]): 0.67 ± 0.12 ×10^−6cm/s
- Papp B-to-A (Caco-2 WT cells [6]): 10.87 ± 0.20 ×10^−6cm/s
- Efflux ratio (Caco-2 WT cells [6]): 16.65 ± 2.90
- Efflux ratio (Caco-2 WT cells [6]; listed as E3S): 16.6
- Papp A-to-B (Caco^Pgp−/− cells [16]; 1 h, 37°C, HBSS pH 7.4): 1.53 ± 0.24 ×10^−6cm/s
- Papp B-to-A (Caco^Pgp−/− cells [16]; 1 h, 37°C, HBSS pH 7.4): 22.48 ± 1.01 ×10^−6cm/s
- Efflux ratio (Caco^Pgp−/− cells [16]): 14.90 ± 1.63
- Efflux ratio compared with WT [17]: reduced significantly
- Papp A-to-B (Caco^Pgp−/−MRP2−/− cells [18]; 1 h, 37°C, HBSS pH 7.4): 3.23 ± 0.08 ×10^−6cm/s
- Papp B-to-A (Caco^Pgp−/−MRP2−/− cells [18]; 1 h, 37°C, HBSS pH 7.4): 25.34 ± 2.06 ×10^−6cm/s
- Efflux ratio (Caco^Pgp−/−MRP2−/− cells [18]): 7.830 ± 0.46
- Papp A-to-B (Caco^MRP2−/− cells [19]; 1 h, 37°C, HBSS pH 7.4): 2.91 ± 0.32 ×10^−6cm/s
- Papp B-to-A (Caco^MRP2−/− cells [19]; 1 h, 37°C, HBSS pH 7.4): 15.32 ± 3.10 ×10^−6cm/s
- Efflux ratio (Caco^MRP2−/− cells [19]): 5.24 ± 0.59
Compound: C[C@]12CC[C@@H]3c4ccc(OS(=O)(=O)O)cc4CC[C@H]3[C@@H]1CCC2=O [Estrone 3-Sulfate, estrone 3-sulfate]
